Data: patent publication US5241065A, “2,3,4,5-tetrahydro-1H-3-benzazepines having anti-psychotic activity” (Schering Corporation, priority 1992, dated 1993)
Like-named read-outs stand apart in the source and are kept apart here.

How the values were obtained:
[1] = tested on: rats; test: Conditioned avoidance response (CAR) suppression in rats; assay type: in vivo; details: Rattus norvegicus, read-out: Rat CAR, minimal effective dose (MED)
Experimental: N.Y. Acad. Sci. 66, 740 (1957)]. A series of experiments was carried out to assess the ability of the compounds of this invention to suppress the conditioned avoidance response (CAR) in rats.
Rats were required to jump onto a platform located 6.75 inches (17.15 cm) above the grid floor of an experimental chamber in response to a 5-second tone to avoid a 10-second foot shock (0.6 ma). Each experimental session consisted of 20 such trials presented at 30-second intervals. A correct CAR is scored whenever the rat jumps onto the platform during the tone (prior to foot shock). An escape response is scored when the rat jumps onto the platform during a shock. A response failure is defined as the lack of an escape response during the 10-second shock period.
Groups of 6-8 rats were trained in two consecutive days (total of 40 trials). Rats that reached criterion on day 2 (correct CARs in 16 or more of the 20 trials) were treated with either a test drug or a vehicle on day 3. Suppression of CAR was analyzed statistically using Student's t-test comparing the performances of drug-treated to vehicle-treated rats.

[2] = tested on: squirrel monkeys; test: Suppression of conditioned avoidance response (CAR) in squirrel monkeys; assay type: in vivo; details: Saimiri, in Primates, po, read-out: Monkey CAR, minimal effective dose (MED)
Description: This test is designed to measure the effective duration of candidate compounds.
Male or female squirrel monkeys weighing 800-1200 g housed one per cage are utilized. Initially each monkey is taught to terminate both a 3mA electric shock delivered through the grid floor of the test cage and an overlapping tone by depressing a lever in the cage.
In the second phase of the testing, a ten second tone is turned on prior to the shock component. A lever pass during the sounding of the tone terminates the tone and prevents the occurrence of the shock component and is denoted as an "avoidance".
The compound testing is commenced after three consecutive days of re-testing. […] The monkey must achieve at lest an 85% correct avoidance before drug testing commences. If this minimal avoidance level is achieved, the next day the monkey is orally dosed or injected with the subject compounds in the appropriate vehicle, and the number of avoidances are recorded. An animal is defined as having been "affected" by any drug treatment if there is a 50% loss of avoidance behavior relative to the performance of the animal when only the vehicle is injected. The minimal effective dose (MED) is defined as that dose producing an effect in at least 50% of the animals.
A test may be conducted to determine the effective duration of a compound in accordance with the present invention by comparing a compound of the invention to the known compound SCH 23390. A compound of the invention administered 60 minutes prior to the test is compared to SCH 23390 administered 30 minutes prior to test. The duration of each compound is determined by administering a 12.0 mg/kg p.o. dose six hours prior to testing.

[3] = biological target: T1, dopamine D-1 receptor (Rattus norvegicus, UniProt P18901); test: Competitive inhibition assay, 3H-SCH 23390 binding to rat striatal tissue (dopamine D-1); set-up: species or system Male Sprague-Dawley rats; details: rat striatal homogenate, 0.3 nM 3H-SCH 23390, pH 7.4, 37° C., 15 minutes, read-out: Ki against 3H-SCH 23390
T1 construct: Striatal tissue was excised, pooled, and homogenized; from tissue; host or cells: rat striatum (Sprague-Dawley), washed membrane homogenate
Description: (§1) Many compounds capable of effecting reproducible physiological changes in neural tissues are believed to operate by binding at one or more receptor sites.
(§2) A methodology for characterization of binding and an interpretation of the data are described by Billard et al., Life Sciences 35, 1885 (1984) in which the binding of (R)-(+)-7-chloro-8-hydroxy-3-methyl-1-phenyl-2,3,4,5-tetrahydro-1H-3-benzazepine (SCH 23390) (as its hemi-maleate) to the dopamine D-1 receptor is characterized.
(§3) Tritiated SCH 23390 and tritiated spiperone (a potent D-2 ligand) were obtained as described in the Billard et al. reference supra and serially diluted in 0.05 M Tris buffer, pH 7.4, as required. A compound of the invention was diluted in 0.05 M Tris buffer, pH 7.4, as required.
(§4) Male Sprague-Dawley rats (200 to 250 g) from Charles River Breeding Laboratories, Mass., were used to obtain brain tissue. The rats were humanely sacrificed and their brains removed and placed on ice. Striatal tissue was excised, pooled, and homogenized (Brinkman Polytron, 10 sec) in 100 volumes (w/v) of ice cold 50 mM Tris buffer, pH 7.4 (at 25° C.). The homogenate was centrifuged at 20,000 x g for 10 min. The resulting pellet was re-homogenized in Tris buffer and centrifuged again. The final pellet was resuspended in 50 mM Tris buffer, pH 7.4 containing 120 mM NaCl, 5 mM KCl, 2 mM CaCl2, and 1 mM MgCl2.
(§5) Polypropylene incubation tubes received 100 μl of the individual test compounds at various concentrations dissolved or suspended in 0.05 M Tris buffer, pH 7.4 containing 4 mg/ml methylcellulose, 100 μl of a solution of ^3 H-SCH 23390 in Tris buffer (final reaction mixture concentration=0.3nM) or 100 μl of a solution of ^3 H-spiperone in Tris buffer (final concentration=0.2 nM) and 800 μl of tissue suspension (ca. 3 mg/assay). Tubes were incubated at 37° C. for 15 minutes and rapidly vacuum filtered through Whatman GF/B filters and rinsed 4 times with 4 ml of ice cold 50 mM Tris buffer, pH 7.4. The filters were transferred to scintillation vials, equilibrated with 10 ml of scintillant (Scintosol, Isolab, Inc.) for 16 hours at 25° C., and the radioactivity was determined in a liquid scintillation counter. Ki values were determined as described by Billard et al. using the relationship: K i =IC50 /(1+([…])) wherein IC50 =concentration of test drug necessary to displace 50% of specifically bound ^3 H-SCH 23390, [L]=concentration of radioligand used in the assay, and KD =dissociation constant.

[4] = biological target: T2, D-2 receptor (Rattus norvegicus, UniProt P61169); test: Competitive inhibition assay, 3H-spiperone binding to rat striatal tissue (D-2); set-up: species or system Male Sprague-Dawley rats; details: rat striatal homogenate, 0.2 nM 3H-spiperone, pH 7.4, 37° C., 15 minutes, read-out: Ki against 3H-spiperone
T2 construct: Striatal tissue was excised, pooled, and homogenized; from tissue; host or cells: rat striatum (Sprague-Dawley), washed membrane homogenate
Description: as §1, §2, §3, §4, §5

[5] = tested on: rat; test: Toxicity, rat; assay type: in vivo; details: for Toxicity, rat: result in words, dose in mpk within the value
Description: The compounds of this invention are substantially non-toxic at the therapeutic close, as is shown in the following Table 4, which compares them with related reference compounds: […]

T2 sequence (P61169 whole entry): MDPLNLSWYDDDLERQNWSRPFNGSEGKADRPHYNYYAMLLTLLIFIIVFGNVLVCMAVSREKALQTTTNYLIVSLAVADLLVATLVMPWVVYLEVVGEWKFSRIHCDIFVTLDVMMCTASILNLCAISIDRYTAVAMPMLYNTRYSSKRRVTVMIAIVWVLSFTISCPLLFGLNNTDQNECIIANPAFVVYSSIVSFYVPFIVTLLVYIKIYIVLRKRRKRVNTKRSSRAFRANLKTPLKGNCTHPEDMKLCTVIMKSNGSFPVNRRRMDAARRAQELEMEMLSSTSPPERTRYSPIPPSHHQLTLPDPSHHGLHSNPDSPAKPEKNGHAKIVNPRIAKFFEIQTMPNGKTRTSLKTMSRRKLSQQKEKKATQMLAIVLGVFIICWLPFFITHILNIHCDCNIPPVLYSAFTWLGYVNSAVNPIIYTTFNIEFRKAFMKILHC
T1 sequence (P18901 whole entry): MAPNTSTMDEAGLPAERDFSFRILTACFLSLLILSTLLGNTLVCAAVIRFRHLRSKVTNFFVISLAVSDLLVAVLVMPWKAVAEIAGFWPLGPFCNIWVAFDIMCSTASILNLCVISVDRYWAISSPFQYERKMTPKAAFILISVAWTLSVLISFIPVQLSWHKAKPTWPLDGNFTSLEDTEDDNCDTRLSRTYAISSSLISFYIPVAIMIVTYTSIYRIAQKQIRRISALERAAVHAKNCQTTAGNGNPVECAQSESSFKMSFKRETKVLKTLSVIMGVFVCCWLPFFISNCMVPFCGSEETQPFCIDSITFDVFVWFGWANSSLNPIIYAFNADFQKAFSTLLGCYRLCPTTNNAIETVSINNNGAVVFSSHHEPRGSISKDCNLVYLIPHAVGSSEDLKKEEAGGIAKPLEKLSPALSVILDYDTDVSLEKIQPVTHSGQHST

| Compound | minimal effective dose ([1]; po (per oral)) [mg/kg] | Ki [3] [nM] | Ki [4] [nM] | Toxicity, rat [5] | other results |
| --- | --- | --- | --- | --- | --- |
| Cc1cc2c(cc1O)C(C1=CCCCC1)CN(C)CC2 (racemic) [A, (R,S)-1-(1-cyclohexenyl)-8-hydroxy-3,7-dimethyl-2,3,4,5-tetrahydro-1H-3-benzazepine, reference compound] | > 30 | 8.7 | 1880 |  | minimal effective dose [2]: 3 mg/kg; minimal effective dose ([2]; at 1 hour): 10 mg/kg; Toxicity, rat: salivation ([5]; 10 mpk po, after 1 hour): salivation in 1 of 3 rats |
| CC1=C(C2CN(C)CCc3cc(Cl)c(O)cc32)CCC1 (racemic) [G, (R,S)-7-chloro-8-hydroxy-3-methyl-(2-methyl-1-cyclopentenyl)-2,3,4,5-tetrahydro-1H-3-benzazepine] | 10 | 0.27 | 656 | Non-toxic at 300 mpk | minimal effective dose ([1]; po, at 6 hours): 50 mg/kg; minimal effective dose ([1]; sc (subcutaneous)): 0.01 mg/kg; minimal effective dose [2]: 5 mg/kg; minimal effective dose ([2]; at 6 hours): 20 mg/kg |
| CN1CCc2cc(Cl)c(O)cc2C(C2=CCCCC2)C1 (racemic) [K, (R,S)-7-chloro-1-(1-cyclohexenyl)-8-hydroxy-3-methyl-2,3,4,5-tetrahydro-1H-3-benzazepine] |  | 2.2 | 1440 |  |  |
| CC1=C(C2CN(C)CCc3cc(Cl)c(O)cc32)CCCC1 (racemic) [N, (R,S)-7-chloro-8-hydroxy-3-methyl-1-(2-methyl-1-cyclohexenyl)-2,3,4,5-tetrahydro-1H-3-benzazepine] | 30 | 0.83 | 420 |  |  |
| CN1CCc2cc(Cl)c(O)cc2C(C2=CCCC2)C1 (racemic) [Q, (R,S)-7-chloro-1-(1-cyclopentenyl)-8-hydroxy-3-methyl-2,3,4,5-tetrahydro-1H-3-benzazepine] |  | 2.3 | 595 |  |  |
| Cc1cc2c(cc1O)[C@H](C1=CCCCC1)CN(C)CC2 [B, (S)-1-(1-cyclohexenyl)-8-hydroxy-3,7-dimethyl-2,3,4,5-tetrahydro-1H-3-benzazepine, reference compound] | > 30 | 101 | 4370 |  |  |
| Cc1cc2c(cc1O)[C@@H](C1=CCCCC1)CN(C)CC2 [C, (R)-1-(1-cyclohexenyl)-8-hydroxy-3,7-dimethyl-2,3,4,5-tetrahydro-1H-3-benzazepine, reference compound] |  | 4 | 1670 |  | minimal effective dose ([1]; sc (subcutaneous)): 0.1 mg/kg |
| CN1CCc2cc(Cl)c(O)cc2C(C2CCCC2)C1 (stereo not drawn) [D, reference compound] | > 30 |  |  |  | minimal effective dose ([1]; sc (subcutaneous)): 3 mg/kg |
| Cc1cc2c(cc1O)C(C1CCCCC1)CN(C)CC2 (stereo not drawn) [E, reference compound] | 10 | 48 | 3610 | Lethal at 300 mpk | minimal effective dose ([1]; sc (subcutaneous)): 3 mg/kg |
| Cc1cc2c(cc1O)C(C1CCCC1)CN(C)CC2 (stereo not drawn) [F, reference compound] |  | 44 | 1050 | Lethal at 300 mpk |  |
| CC1=C([C@H]2CN(C)CCc3cc(Cl)c(O)cc32)CCC1 [H, (R)-7-chloro-8-hydroxy-3-methyl-1-(2-methyl-1-cyclopentenyl)-2,3,4,5-tetrahydro-1H-3-benzazepine] | 5 | 0.43 | 358 | Non-toxic at 150 mpk | minimal effective dose ([1]; po, at 6 hours): 25 mg/kg; minimal effective dose [2]: 2 mg/kg; minimal effective dose ([2]; at 4 hours): 10 mg/kg |
| CC1=C([C@@H]2CN(C)CCc3cc(Cl)c(O)cc32)CCC1 [J, (S)-7-chloro-8-hydroxy-3-methyl-1-(2-methyl-1-cyclopentenyl)-2,3,4,5-tetrahydro-1H-3-benzazepine] | > 30 | 15 | 3690 |  |  |
| CN1CCc2cc(Cl)c(O)cc2[C@H](C2=CCCCC2)C1 [L, (S)-7-chloro-1-(1-cyclohexenyl)-8-hydroxy-3-methyl-2,3,4,5-tetrahydro-1H-3-benzazepine] | > 30 | 23 | 2080 |  |  |
| CN1CCc2cc(Cl)c(O)cc2[C@@H](C2=CCCCC2)C1 [M, (R)-7-chloro-1-(1-cyclohexenyl)-8-hydroxy-3-methyl-2,3,4,5-tetrahydro-1H-3-benzazepine] | 10 | 0.87 | 1090 | Secretions at 300 mpk |  |
| CC(C)=C(C)C1CN(C)CCc2cc(Cl)c(O)cc21 (stereo not drawn) [P] | 10 | 2.8 | 554 |  |  |
